Compound	melting point [°C]
CCc1ccc(C2COc3c(C)c(C)c(NC(=O)CC(C)(C)C)c(C)c32)cc1 (centres undefined)	162 to 163
Cc1oc(-c2ccccc2)nc1Cc1cc2cc(N)ccc2o1	162
CCC1(C)Cc2ccc(C(C)C(=O)O)cc2C1 (centres undefined)	165 to 167
O=C(O)c1ccc(F)cc1Nc1ccc(I)cc1Cl	238 to 239
CC(NC(=O)Cc1cc(F)cc(F)c1)C(=O)NC1C(=O)NC(C)c2ccccc21 (centres undefined)	205 to 206
COc1ccccc1CNc1ccc2cc(Nc3ncccn3)ccc2n1	175
Cc1c(-c2ccc(F)cc2F)ncnc1C(F)F	54 to 55
CC(C)NCC(O)c1cc(CO)cc(OCc2ccccc2)c1 (centres undefined)	84 to 89
OC[C@H]1CCCC[C@H]1Nc1nccc(-n2nnc3ccccc32)n1	206 to 208
Cc1nccn1-c1ccc(N2C[C@H](CNc3ccon3)OC2=O)cc1F	106 to 107
CCOc1cc(CCNC(=S)Nc2nccs2)ccc1OC	150 to 152
CCOC(=O)C(C#N)=Cc1ccc(NC(C)=O)cc1	187
CCCc1cc(O)nc(-c2cccc(Oc3ccccc3Cl)n2)n1	95.1
O=C(NC1N=C(c2ccccc2F)c2ccccc2NC1=O)c1ccsc1 (racemic)	238 to 239
CN(C)c1ccc(NC(=O)N(C[C@H]2CCC[C@H](CN(C(=O)Nc3ccc(N(C)C)cc3)C3CCCC3)C2)C2CCCC2)cc1 (relative stereo)	142 to 147
COc1cccc(OC)c1-c1ccc(C[C@H](NC(=O)c2c(Cl)ccc(-c3c(C)noc3C)c2Cl)C(=O)O)cc1	145
C[C@H]1C=CC(S(=O)(=O)c2ccccc2)=C[C@H](C)[C@H]1O	100 to 102
Cn1ccnc1SCC(O)(Cn1cncn1)c1ccc(Cl)cc1Cl (centres undefined)	159 to 161
CC(C)(C)c1cc(CCc2ccccc2NC(=O)N2CCOCC2)cc(C(C)(C)C)c1O	186 to 189
O=C(O)c1cccc(NC(=S)Nc2ccc3c(Cl)c(OCCBr)oc(=O)c3c2)c1	157 to 158
O=Cc1cccc(-c2cc3nccnc3[nH]2)c1	268 to 270
CC(=O)OC1CSC(Oc2ccc(-c3ccc(F)nc3)nc2)C(OC(C)=O)C1OC(C)=O (centres undefined)	185

Compound	melting point [°C]
CNC(=O)Nc1cc(CC(C)C)ccc1-c1ccccc1S(=O)(=O)Nc1onc(C)c1C	172 to 174
COC(=O)COCc1cc(C(C)(C)C)c(O)c(C(C)(C)C)c1	132 to 133
COc1cc(OC)nc(NC(=O)NS(=O)(=O)c2ccccc2-c2ccccn2)n1	175 to 176
CCOP(C)(=O)COS(=O)(=O)c1ccccc1C(F)(F)F (centres undefined)	91 to 92.5
CC1(C2CCCC2)Cc2cc(OCCCCC(=O)O)c(Cl)c(Cl)c2C1=O (centres undefined)	106 to 108
OCC(O)COc1ccc(NNC(c2ccccc2)(c2ccccc2)c2ccccc2)nn1 (racemic)	174 to 176
COC(=O)CN(N)CC(=O)OC	166
CCOC(=O)c1cc(=O)nc2n1-c1ccc(C)cc1OC2	136 to 137
N#Cc1ccc(C(=O)OCc2ccc[nH]c2=O)cc1	200 to 203
C#Cc1cccc(N2C(=O)C=CC2=O)c1	129 to 131
FC(F)(F)c1ccc(Oc2ccc3nonc3c2)cc1	77 to 78
CC(C)N1CCN(CCN2CCC(c3noc4cc(F)ccc34)CC2)C1=O	121 to 123
O=C(CCc1ccc(Cl)cc1Cl)NC1CC(=O)c2ccccc2NC1=O (centres undefined)	234 to 236
O=C(CCCCCCC(=O)N1CCN(c2cccc(C(F)(F)F)c2)CC1)NO	126 to 128
Cc1c(C2=CCC(c3ccccc3)(N(C)C)CC2)n(CC2CO2)c2ccccc12 (centres undefined)	147 to 150
O=[N+]([O-])c1ccc(C=Cc2ccncn2)cc1	213 to 215
O=C(Nc1cc(Cl)cc(Cl)c1)c1cc(I)ccc1O	244 to 245
Cc1cc2c(cc1C(=O)CO)C(C)(C)CC(C)C2(C)C (centres undefined)	81 to 82
CCCN(CCC)C(=O)/C=C/CSc1nc(N)cc(Cl)n1	139 to 142
CCOC(=O)C1NC(=O)C1OC (centres undefined)	91 to 92
O=C(O)C(CCc1ccccc1)(CCc1ccccc1)C(=O)O	168 to 172
Cc1ccc(CN[C@H](CO)Cc2ccccc2)cc1	125 to 127

Compound	melting point [°C]
CCCc1c2c(c([N+](=O)[O-])c3c(=O)cc(C(=O)OCC)oc13)CCCC2	140 to 142
N=C(Nc1ccc(Cl)cc1)Nc1ncccc1OCc1c(F)cccc1F	146 to 148
CC#CCOc1ccc(S(=O)(=O)N(C)C2(C(=O)O)CCCCC2)cc1	124 to 126
COc1ccc(Nc2nc(NC3CCCCCC3)nc(Oc3ccccc3I)n2)cc1Cl	206 to 208
Nc1n[nH]c(SCCCO)n1	136 to 137
CN(CCCC(N)=O)Cc1ccc(Cl)cc1	62 to 64
COc1c(N2CCNCC2)c(F)c(N)c2c(=O)c(C(=O)O)cn(C3CC3)c12	271 to 273
CC(O)(CCCl)c1ccc(-c2cccc(Cl)c2)cc1 (centres undefined)	98 to 100
CCOCC1COc2cc3c(O)c(C(=O)OCC)cnc3cc2O1 (centres undefined)	266 to 268
C(=Cc1cccc2ccccc12)c1ccc(-c2cc3ccccc3o2)cc1	154 to 155
Nc1cc(=O)n(Cc2ccc(Br)c(Cl)c2)[nH]1	145 to 146
Cc1ccc(C2c3c(C)c4c(c(C)c3OC2(C)C)CCN4)cc1 (centres undefined)	135 to 136
O=C(NC(c1ccccc1)c1ccccc1)N1CCC(c2ccccc2)(c2ccccc2)CC1	232 to 234
CC[C@@H](c1ccccc1)N(Cc1ccc(C(=O)O)c(F)c1F)S(=O)(=O)c1ccc(Cl)cc1	127 to 129
Cc1ccc(-n2c(=O)[nH]c3ccccc3c2=O)cc1	267
Cc1nccn1-c1nc(-c2ccc(Cl)cc2)c(CCC(=O)OCc2ccccc2)o1	71 to 72
COC(=O)CN1CSC=C(N2C(=O)c3ccccc3C2=O)C1=O	181 to 183
CCOC(=O)c1cc(NC(=O)C(N)Cc2ccc(Cl)c(Cl)c2)c[nH]1 (centres undefined)	134 to 136
O=C(NCC(F)(F)F)c1ccc(-c2ccc3nnn(Cc4ccc5ncccc5c4)c3n2)cc1F	194 to 196
O=C(OCCN1CCCCC1)c1c[nH]c2ccccc12	123 to 125

More lines, now with the values ahead:

melting point [°C]	Compound
132 to 133	CC(=O)N(C(C)=O)c1c(C#N)cnn1-c1c(F)c(F)c(C)c(F)c1F
190 to 192	O=C(c1ccccc1)c1cccnc1-c1nc(Nc2ccc(Cl)cc2)c2ccccc2n1
214	Fc1cccc(F)c1-c1nnc(-c2c(F)cccc2F)nn1
191 to 193	Cc1ncn(-c2ccc(C(=O)N3Cc4cccn4Cc4ccccc43)c(Cl)c2)n1
116 to 117	O=C1NC(=O)C(CC#Cc2ccc(Cl)cc2)(Sc2ccc(F)cc2)S1 (centres undefined)
136 to 137	CCNC(=O)c1c([Si](C)(C)C)ccc(OC)c1Cl
87 to 88	N#Cc1sccc1[N+](=O)[O-]
184 to 185	CC(C)(C)OC(=O)N1CCC[C@@H]1[C@@H](NC(=O)c1ccc(Cl)cc1)NC(=NC#N)Nc1cccnc1
50 to 51	CCCCCCCCCCCCCCCCCCCc1cccc(N)c1
197 to 198	CCOC(=O)c1nc(-c2ccc(F)cc2)[nH]c1CC
60 to 62	CCCCCCCCCCCCCCCCC(C)c1cccc2c1OC(=O)C2c1ccccc1 (centres undefined)
127 to 128	CC1(CO)OCC2(CO1)COC(C)(CO)OC2 (centres undefined)
134 to 136	CCOC(=O)C1=C(C)NC(c2nccn2C)=NC1c1ccc(F)cc1 (centres undefined)
202 to 203	Cc1cc(NS(=O)(=O)c2cccs2)c2[nH]c(C3=NCCS3)cc2c1
153 to 155	CCOC(=O)c1c2ccc(CC(=O)NOCC(=O)N3CCCCC3)ccc-2c(C(=O)OCC)c1N
210	CC(C)(Nc1ccc(OCc2ccccc2)cc1)C(=O)O
235 to 238	Cc1noc(CCc2c(-c3ccccc3)c(=O)[nH]c3cc(Cl)ccc23)n1
228 to 230	COC1(OC)CCN(c2cc3c(cc2F)c(=O)c(C(=O)O)cn3-c2ccc(F)cc2F)C1
240 to 241	O=C(O)CCC(=O)Nc1cccc(-c2ccnc3c(C(=O)c4cccs4)cnn23)c1
114 to 116	O=C(O)C1CCC(=O)N1Cc1cccc(F)c1 (centres undefined)

melting point [°C]	Compound
79 to 81	COc1ccc2c(c1)C(CCCCNC(C)=O)=CCC2
98 to 117	Nc1ccc(C(=O)N2Cc3ccnn3Cc3ccccc32)c(Cl)c1
150 to 152	CC1(C)CC(OC(=O)c2ccccc2)CC(C)(C)N1C#N
110 to 148	COc1ccc(C(O)CNC(C)CCc2ccccc2)cc1C(N)=O (centres undefined)
148 to 149	N#Cc1cc(CC(=O)O)cc2c1NC(C(F)(F)F)CC2 (centres undefined)
58 to 64	COc1ccc(NS(=O)(=O)c2ccc(N3CCC(NC[C@H](O)COc4cccc5[nH]c6ccccc6c45)CC3)cc2)cc1OC
92 to 98	Cc1cc(O)c(O)cc1Br
> 265	C=CC(=O)Nc1ccc2c(Nc3cccc(Br)c3)ncnc2c1
203 to 204	CCC1CC(=O)Nc2c1cnn2CC (centres undefined)
113	O=C1CCc2cc(-c3cccc(Cl)c3)ccc21
268 to 271	COc1ccc2[nH]cc(-c3cc4nccnc4[nH]3)c2c1
155 to 157	CC(C)/[N+]([O-])=C/c1ccc(O)cc1O
219 to 222	Oc1noc2ccc(Cl)cc12
155 to 156	CN(C)C1N(C(=O)c2ccccc2)N=C2c3ccccc3SN21 (centres undefined)
108	CCOc1ccc2[nH]c(=O)n(C(C)(C)CC(C)(C)C)c2c1
195 to 196	CCN(CC)C(=O)Nc1ccc(S(=O)(=O)N2C(=O)C(N)(c3ccccc3Cl)c3cc(Cl)ccc32)cc1 (centres undefined)
76 to 78	CCCCCC(=O)CCCCc1ccc(O)c(O)c1
89 to 94	Cc1nc(Cl)c([N+](=O)[O-])c(NCC(C)(C)N)c1C
197 to 198	O=C(OCC(O)CO)c1cc(F)ccc1Nc1ccnc2c(C(F)(F)F)cccc12 (centres undefined)
158 to 159	CN1CCN(C2=Nc3cc(Br)ccc3-n3ccc4cc(Br)cc2c43)CC1

Source: a melting point compilation (Tetko et al.; mined from patent text by program, amines drawn as free bases though some values may be those of a salt)
